Assay results reported in the supplement of paper PMC10307832.

Tests used:
Test in all cases: relative viability (nuclei count vs DMSO), 5 days (fraction); higher = more cells survive
BEN = test system: BEN
Procedure, shortened: (§1)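 Lung cancer cell lines, seeded in 1536-well plates, were treated the following day by pin tool with a single drug or with five library-drug doses (not always all listed) in √10 steps on top of a fixed anchor-drug dose. Cells were fixed and nuclei stained in one step after 5 days, and nuclei were counted. Relative viability is the nuclei count for treated wells divided by that for vehicle wells, reported as medians of duplicate plates.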

EKVX = test system: EKVX
Procedure, shortened: as §1

HARA = test system: HARA
Procedure, shortened: as §1

HCC-366 = test system: HCC-366
Procedure, shortened: as §1

HCC-827 = test system: HCC-827
Procedure, shortened: as §1

LOU-NH91 = test system: LOU-NH91
Procedure, shortened: as §1

NCI-H1355 = test system: NCI-H1355
Procedure, shortened: as §1

NCI-H1395 = test system: NCI-H1395
Procedure, shortened: as §1

NCI-H1437 = test system: NCI-H1437
Procedure, shortened: as §1

NCI-H1734 = test system: NCI-H1734
Procedure, shortened: as §1

NCI-H1792 = test system: NCI-H1792
Procedure, shortened: as §1

NCI-H1993 = settings: first compound 0.01 µM
Procedure, shortened: as §1

SMILES: O=c1cc(N2CCOCC2)oc2c(-c3cccc4c3sc3ccccc34)cccc12 + O=C(c1cc(Cc2n[nH]c(=O)c3ccccc23)ccc1F)N1CCN(C(=O)C2CC2)CC1 [Olaparib] (partner 8 µM)
- relative viability (BEN; first compound 0.01 µM): 1.12
- relative viability (BEN; first compound 0.03162 µM): 1.21
- relative viability (BEN; first compound 0.1 µM): 1.21
- relative viability (BEN; first compound 0.3162 µM): 1.08
- relative viability (BEN; first compound 1 µM): 1.1
- relative viability (EKVX; first compound 0.01 µM): 0.769
- relative viability (EKVX; first compound 0.03162 µM): 0.807
- relative viability (EKVX; first compound 0.1 µM): 1.03
- relative viability (EKVX; first compound 0.3162 µM): 0.851
- relative viability (EKVX; first compound 1 µM): 0.891
- relative viability (HARA; first compound 0.01 µM): 0.762
- relative viability (HARA; first compound 0.03162 µM): 1.01
- relative viability (HARA; first compound 0.1 µM): 0.884
- relative viability (HARA; first compound 0.3162 µM): 0.972
- relative viability (HARA; first compound 1 µM): 0.792
- relative viability (HCC-366; first compound 0.01 µM): 0.368
- relative viability (HCC-366; first compound 0.03162 µM): 0.319
- relative viability (HCC-366; first compound 0.1 µM): 0.435
- relative viability (HCC-366; first compound 0.3162 µM): 0.346
- relative viability (HCC-366; first compound 1 µM): 0.386
- relative viability (HCC-827; first compound 0.01 µM): 0.695
- relative viability (HCC-827; first compound 0.03162 µM): 0.609
- relative viability (HCC-827; first compound 0.1 µM): 0.623
- relative viability (HCC-827; first compound 0.3162 µM): 0.641
- relative viability (HCC-827; first compound 1 µM): 0.642
- relative viability (LOU-NH91; first compound 0.01 µM): 0.855
- relative viability (LOU-NH91; first compound 0.03162 µM): 0.916
- relative viability (LOU-NH91; first compound 0.1 µM): 0.96
- relative viability (LOU-NH91; first compound 0.3162 µM): 0.921
- relative viability (LOU-NH91; first compound 1 µM): 0.884
- relative viability (NCI-H1355; first compound 0.01 µM): 0.712
- relative viability (NCI-H1355; first compound 0.03162 µM): 0.675
- relative viability (NCI-H1355; first compound 0.1 µM): 0.711
- relative viability (NCI-H1355; first compound 0.3162 µM): 0.709
- relative viability (NCI-H1355; first compound 1 µM): 0.743
- relative viability (NCI-H1395; first compound 0.03162 µM): 0.457
- relative viability (NCI-H1395; first compound 0.1 µM): 0.445
- relative viability (NCI-H1395; first compound 0.3162 µM): 0.467
- relative viability (NCI-H1395; first compound 1 µM): 0.498
- relative viability (NCI-H1437; first compound 0.01 µM): 0.606
- relative viability (NCI-H1437; first compound 0.03162 µM): 0.656
- relative viability (NCI-H1437; first compound 0.1 µM): 0.725
- relative viability (NCI-H1437; first compound 0.3162 µM): 0.656
- relative viability (NCI-H1437; first compound 1 µM): 0.613
- relative viability (NCI-H1734; first compound 0.01 µM): 0.686
- relative viability (NCI-H1734; first compound 0.03162 µM): 0.638
- relative viability (NCI-H1734; first compound 0.1 µM): 0.685
- relative viability (NCI-H1734; first compound 0.3162 µM): 0.638
- relative viability (NCI-H1734; first compound 1 µM): 0.652
- relative viability (NCI-H1792; first compound 0.01 µM): 0.445
- relative viability (NCI-H1792; first compound 0.03162 µM): 0.465
- relative viability (NCI-H1792; first compound 0.3162 µM): 0.403
- relative viability (NCI-H1792; first compound 1 µM): 0.405
- relative viability (NCI-H1993): 1.08
